Assay results published in the supplement of paper PMC11061612.

Assays:
[1] = compound: CCN(CCO)CCCOc1ccc2c(Nc3cc(CC(=O)Nc4cccc(F)c4)[nH]n3)ncnc2c1 [AZD2811]; conditions: max 1 µM
In short: (§1)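 Cancer cell lines were seeded in 1536-well plates in 7.5 μl DMEM/F12 or RPMI with 10% FBS, held 24 hours at 37°C and 5% CO2, then dosed for 72 hours (final DMSO typically 0.2%). Viability was read by CellTiter-Glo 2.0 luminescence and scaled between blank-well and DMSO-well means. The single-agent IC50 comes from dose responses fitted to a two-parameter logistic curve with a non-linear mixed effects model.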

[2] = compound: COc1cc([C@@H]2c3cc4c(cc3[C@@H](O[C@@H]3O[C@@H]5CO[C@@H](C)O[C@H]5[C@H](O)[C@H]3O)[C@H]3COC(=O)[C@H]23)OCO4)cc(OC)c1O [Etoposide]; conditions: max 10 µM
In short: as §1

[3] = compound: C[C@@H](Nc1cc(F)cc(F)c1)c1cc(C(=O)N(C)C)cc2c(=O)cc(N3CCOCC3)oc12 [AZD8186]; conditions: max 10 µM
In short: as §1

[4] = compound: Cn1cnc2c(F)c(Nc3ccc(Br)cc3Cl)c(C(=O)NOCCO)cc21 [Selumetinib]; conditions: max 10 µM
In short: as §1

[5] = compound: CN(C)CCCOc1ccc(-c2ccc3ncc4c(c3c2)n(C2CCOCC2)c(=O)n4C)cn1 [AZD0156]; conditions: max 3 µM
In short: as §1

[6] = compound: CS(=O)(=O)CCNCc1ccc(-c2ccc3ncnc(Nc4ccc(OCc5cccc(F)c5)c(Cl)c4)c3c2)o1 [Lapatinib]; conditions: max 10 µM
In short: as §1

[7] = compound: CC(=O)Nc1cccc(-n2c(=O)n(C3CC3)c(=O)c3c(Nc4ccc(I)cc4F)n(C)c(=O)c(C)c32)c1 [Trametinib]; conditions: max 1 µM
In short: as §1

[8] = compound: C[C@@H]1COCCN1C2=NC(=NC(=C2)C3(CC3)[S@](=N)(=O)C)C4=C5C=CNC5=NC=C4 [AZD6738]; conditions: max 10 µM
In short: as §1

[9] = compound: C=CCn1c(=O)c2cnc(Nc3ccc(N4CCN(C)CC4)cc3)nc2n1-c1cccc(C(C)(C)O)n1 [AZD1775]; conditions: max 3 µM
In short: as §1

[10] = compound: Cc1c2c(nn1C)CSCc1cc(n(C)n1)CSc1cc(c3ccccc3c1)OCCCc1c(C(=O)O)n(C)c3c-2c(Cl)ccc13 [AZD5991]; conditions: max 1 µM
In short: as §1

[11] = compound: C[C@@H](Oc1cc(-c2cnn(C3CCNCC3)c2)cnc1N)c1c(Cl)ccc(F)c1Cl [Crizotinib]; conditions: max 10 µM
In short: as §1

[12] = compound: COc1nnc2ccc(N3CCC(c4ccc(OCCN5CCN(C)C(=O)[C@H]5C)cc4)CC3)nn12 [AZD5153]; conditions: max 1 µM
In short: as §1

[13] = compound: C1CN(CCC1(C(=O)N[C@@H](CCO)C2=CC=C(C=C2)Cl)N)C3=NC=NC4=C3C=CN4 [AZD5363]; conditions: max 10 µM
In short: as §1

[14] = compound: COc1cccc(OCCCN)c1-c1cc(Nc2cnc(C#N)cn2)n[nH]1 [Prexasertib]; conditions: max 1 µM
In short: as §1

[15] = compound: O=c1[nH]cc(F)c(=O)[nH]1 [5-Fluorouracil]; conditions: max 20 µM
In short: as §1

[16] = compound: CC(=O)c1c(C)c2cnc(Nc3ccc(N4CCNCC4)cn3)nc2n(C2CCCC2)c1=O [Palbociclib]; conditions: max 10 µM
In short: as §1

[17] = compound: Cc1cc2ncnn2cc1Nc1ncc2c(n1)n(C1CCOCC1)c(=O)n2C [AZD7648]; conditions: max 10 µM
In short: as §1

[18] = compound: C[C@@H](c1ccc2nccn2c1)n1nnc2ncc(-c3cnn(C)c3)nc21 [Savolitinib]; conditions: max 1 µM
In short: as §1

[19] = compound: Cc1nc(-c2cn3c(n2)-c2ccc(-c4cnn(C(C)(C)C(N)=O)c4)cc2OCC3)n(C(C)C)n1 [Taselisib]; conditions: max 10 µM
In short: as §1

[20] = compound: CN(CC[C@H](CSC1=CC=CC=C1)NC2=C(C=C(C=C2)S(=O)(=O)NC(=O)C3=CC=C(C=C3)N4CCC(CC4)[C@H](C5=CC=CC=C5C6=CC=C(C=C6)Cl)O)S(=O)(=O)C(F)(F)F)CCO [AZD4320]; conditions: max 1 µM
In short: as §1

[21] = compound: C1CC(C1)(C(=O)[O-])C(=O)[O-].N.N.[Pt+2] [Carboplatin]; conditions: max 10 µM
In short: as §1

[22] = compound: COc1cc(Nc2ncc3c(n2)-c2ccc(Cl)cc2C(c2c(F)cccc2OC)=NC3)ccc1C(=O)O [Alisertib]; conditions: max 10 µM
In short: as §1

[23] = compound: CC1(C)CCC(CN2CCN(c3ccc(C(=O)NS(=O)(=O)c4ccc(NCC5CCOCC5)c([N+](=O)[O-])c4)c(Oc4cnc5[nH]ccc5c4)c3)CC2)=C(c2ccc(Cl)cc2)C1 [Venetoclax]; conditions: max 1 µM
In short: as §1

[24] = compound: CC1=C(C(=CC=C1)Cl)NC(=O)C2=CN=C(S2)NC3=CC(=NC(=N3)C)N4CCN(CC4)CCO [Dasatinib]; conditions: max 2 µM
In short: as §1

[25] = compound: COc1cccc2c1C(=O)c1c(O)c3c(c(O)c1C2=O)C[C@@](O)(C(=O)CO)C[C@@H]3O[C@H]1C[C@H](N)[C@H](O)[C@H](C)O1 [Doxorubicin]; conditions: max 1 µM
In short: as §1

[26] = compound: O=C(c1cc(Cc2n[nH]c(=O)c3ccccc23)ccc1F)N1CCN(C(=O)C2CC2)CC1 [Olaparib]; conditions: max 10 µM
In short: as §1

[27] = compound: N#Cc1cnc(Nc2cc(NC[C@H]3CNCCO3)c(C(F)(F)F)cn2)cn1 [SRA737]; conditions: max 10 µM
In short: as §1

[28] = compound: CC1=CN2[C@@H](C1)C=NC3=CC(=C(C=C3C2=O)OC)OCCCCCOC4=C(C=C5C(=C4)N=C[C@@H]6CC(=CN6C5=O)C)OC [SG3199]; conditions: max 0.001 µM
In short: as §1

[29] = compound: CC(C)n1c(=O)n(C)c2cnc3cc(F)c(-c4ccc(OCCCN5CCCCC5)nc4)cc3c21 [AZD1390]; conditions: max 0.3 µM
In short: as §1

[30] = compound: Nc1ccn([C@@H]2O[C@H](CO)[C@@H](O)C2(F)F)c(=O)n1 [Gemcitabine]; conditions: max 0.3 µM
In short: as §1

[31] = compound: O=C(Nc1ccc2[nH]nc(-c3ccncc3)c2c1)[C@@H]1CCN(CC(=O)N2CCN(c3ccc(-c4ncccn4)cc3)CC2)C1; conditions: max 5 µM
In short: as §1

[32] = compound: CC(=O)O[C@H]1C(=O)[C@@]2(C)[C@H]([C@H](OC(=O)c3ccccc3)[C@]3(O)C[C@H](OC(=O)[C@H](O)[C@@H](NC(=O)c4ccccc4)c4ccccc4)C(C)=C1C3(C)C)[C@]1(OC(C)=O)CO[C@@H]1C[C@@H]2O [Paclitaxel]; conditions: max 3 µM
In short: as §1

[33] = compound: COc1cc2ncnc(Nc3ccc(F)c(Cl)c3)c2cc1OCCCN1CCOCC1 [Gefitinib]; conditions: max 10 µM
In short: as §1

[34] = compound: NC1(c2ccc(-c3nc4ccn5c(=O)[nH]nc5c4cc3-c3ccccc3)cc2)CCC1 [MK-2206]; conditions: max 10 µM
In short: as §1

[35] = compound: CCc1c2c(nc3ccc(O)cc13)-c1cc3c(c(=O)n1C2)COC(=O)[C@]3(O)CC [SN-38]; conditions: max 0.3 µM
In short: as §1

| Cell Line | IC50, cell viability 72 h [1] | IC50, cell viability 72 h [2] | IC50, cell viability 72 h [3] | IC50, cell viability 72 h [4] | IC50, cell viability 72 h [5] | IC50, cell viability 72 h [6] | IC50, cell viability 72 h [7] | IC50, cell viability 72 h [8] | IC50, cell viability 72 h [9] | IC50, cell viability 72 h [10] | IC50, cell viability 72 h [11] | IC50, cell viability 72 h [12] | IC50, cell viability 72 h [13] | IC50, cell viability 72 h [14] | IC50, cell viability 72 h [15] | IC50, cell viability 72 h [16] | IC50, cell viability 72 h [17] | IC50, cell viability 72 h [18] | IC50, cell viability 72 h [19] | IC50, cell viability 72 h [20] | IC50, cell viability 72 h [21] | IC50, cell viability 72 h [22] | IC50, cell viability 72 h [23] | IC50, cell viability 72 h [24] | IC50, cell viability 72 h [25] | IC50, cell viability 72 h [26] | IC50, cell viability 72 h [27] | IC50, cell viability 72 h [28] | IC50, cell viability 72 h [29] | IC50, cell viability 72 h [30] | IC50, cell viability 72 h [31] | IC50, cell viability 72 h [32] | IC50, cell viability 72 h [33] | IC50, cell viability 72 h [34] | IC50, cell viability 72 h [35] |
| --- | --- | --- | --- | --- | --- | --- | --- | --- | --- | --- | --- | --- | --- | --- | --- | --- | --- | --- | --- | --- | --- | --- | --- | --- | --- | --- | --- | --- | --- | --- | --- | --- | --- | --- | --- |
| HDLM-2 (Hodgkin's Lymphoma) | > 1000 nM | 6080 nM | > 10000 nM | > 10000 nM | > 3000 nM | > 10000 nM | > 1000 nM | > 10000 nM | 387 nM | 119 nM | > 10000 nM | 936 nM | > 10000 nM | 504 nM | > 20000 nM | > 10000 nM | > 10000 nM | > 1000 nM | > 10000 nM | 82.6 nM | > 10000 nM | > 10000 nM | > 1000 nM | > 2000 nM | > 1000 nM | > 10000 nM | > 10000 nM | > 1 nM | > 300 nM | > 300 nM | > 5000 nM | 27.4 nM | > 10000 nM | > 10000 nM | 206 nM |
| HMV-II (Melanoma) | > 1000 nM | > 10000 nM | > 10000 nM | 606 nM | > 3000 nM | > 10000 nM | 8.78 nM | > 10000 nM | 1160 nM | > 1000 nM | > 10000 nM | 463 nM | > 10000 nM | > 1000 nM | > 20000 nM | > 10000 nM | > 10000 nM | > 1000 nM | 5060 nM | > 1000 nM | > 10000 nM | > 10000 nM | > 1000 nM | > 2000 nM | 790 nM | > 10000 nM | > 10000 nM | > 1 nM | > 300 nM | 139 nM | 502 nM | 310 nM | > 10000 nM | > 10000 nM | 127 nM |
| HO-1-u-1 (Oral Cavity Carcinoma) | > 1000 nM | > 10000 nM | > 10000 nM | > 10000 nM | > 3000 nM | 7600 nM | > 1000 nM | 3160 nM | 816 nM | > 1000 nM | > 10000 nM | > 1000 nM | 1310 nM | 28.8 nM | > 20000 nM | > 10000 nM | > 10000 nM | > 1000 nM | 618 nM | > 1000 nM | > 10000 nM | 6330 nM | > 1000 nM | 532 nM | > 1000 nM | > 10000 nM | 6170 nM | > 1 nM | > 300 nM | > 300 nM | 4140 nM | 820 nM | > 10000 nM | > 10000 nM | 239 nM |
